# Reference: patent publication US20190290620A1, “APPLICATIONS OF NOVEL THIAZOLE DERIVATIVE IN TREATING INFLAMMATORY BOWEL DISEASES” (EAST CHINA UNIVERSITY OF SCIENCE AND TECHNOLOGY, priority 2016, published 2019)
# Marks after values point to notes of the source that are not given here.
# Tested on: TNBS-induced ulcerative colitis model mice
# Assay: TNBS-induced mice ulcerative colitis model
# Assay type: in vivo, BALB/c male mice
# Design: key to Scores of gross morphological damages: 0 = no adhesion/ulcer/inflammation, 4+ = severe ulcers (+1 per cm)
# Protocol: BALB/c male mice (each 18-22 g) of SPF level were purchased from Shanghai Slack Laboratory Animal Co., Ltd. and were used in experiments after adaptive feeding for 7 days.
# BALB/c male mice were kept in an animal cage (daylight and darkness of 12 hours, respectively) at a temperature of 20-25° C. and relative humidity of 50-60%, free access to food and water.
# Mice were randomly divided into normal control group, trinitrobenzenesulfonic acid (TNBS) model group, drug treatment group and positive drug control group (sulfasalazine 500 mg/kg).
# All of the mice in model group and administration group were shaved in the abdomen (area 2×2 cm) and sensitized with 1% TNBS (dissolved in 50% ethanol). On the 7th day, the mice were fasted, but not water. After 24 hours, the mice were anesthetized through intraperitoneal injection of 0.1 ml of 10% chloral hydrate and 2% TNBS was used for lavation to establish a mouse model of ulcerative colitis. A gavage needle for rat was inserted into the colon of a mouse, the tip of the needle was about 3˜3.5 cm away from the anus, and 0.1 ml of modeling solution (5% TNBS and deionized water were mixed at a volume ratio of 4:1, and the obtained solution was mixed with absolute ethanol at a volume ratio of 1:1, so as to obtain the modeling solution) was injected. The mice were put back into the cage and wake up naturally. The mice in the normal control group were injected with 0.12 ml of solvent (50% ethanol solution) by the same manner.
# Administration was started on the day of modeling (using 0.5% sodium carboxymethylcellulose, CMC-Na) for 7 consecutive days.
# At 24 hours after the last administration, the mice were sacrificed by cervical dislocation, the peritoneum was cut open, and the whole colon was taken. The intestine was cut longitudinally along the mesenteric margin, rinsed with ice physiological saline, placed on ice, and the pathological changes of the colon were observed. The fat and mesentery were removed, the water was blotted with filter paper, the weight of the colon was weighed and the length was measured. The colon was fixed in 4% formaldehyde for more than 24 hours, dehydrated, paraffin-embedded and H&E stained, and the pathological sections were observed.
# The mice were observed and recorded daily for mental state, fur color, and activities. The mice was weighed daily and observed for the stool traits. The body weight index according to the disease activity index (DAI) is as follows:
# After the colon of a mouse was removed, the weight of the colon was measured with a precision electronic balance, the length was measured with a vernier caliper, and the weight/length ratio of the colon was calculated.
# The criteria for scores were: no adhesion, no ulcer, no inflammation, 0 points; mild adhesion, local congestion, no ulcer, 1 point; severe adhesion, 1 ulcer (area less than 1 cm), no obvious inflammation, 2 points; more than 1 ulcers (area less than 1 cm) with inflammation, 3 points; 2 severe ulcers (area greater than 1 cm) with inflammation, 4 points; and 1 point for each 1 cm increase in ulcer area.
# Pathological changes of colon tissue were observed under light microscope, and the scores were recorded. The criteria for scores are as follows:
# 1) Epithelial cells: normal morphology, 0 points; loss of goblet cells, 1 point; large loss of goblet cells, 2 points; loss of crypt cells, 3 points; large loss of crypt cells, 4 points.
# 2) Infiltration of inflammatory cells: no infiltration, 0 points; infiltration in the basal layer of the crypt, 1 point; infiltration to the muscular layer of the mucosa, 2 points; infiltration to the muscular layer of the mucosa with mucosal thickening and obvious edema, 3 points; infiltration to the submucosal layer, 4 points.
# Data were expressed as […] (mean±S.E.M.), data were analyzed using SPSS statistical software, and one-way ANOVA and Tukey's HSD post hoc test were used for comparison between groups. p<0.05 was considered statistically significant.
# [1] = 24 hours after last administration, ig 7 days, compound 20 mg/kg, sulfasalazine 500 mg/kg
compound,measurement,setting,value
"O=C(O)c1cc(/N=N/c2ccc(S(=O)(=O)Nc3ccccn3)cc2)ccc1O [sulfasalazine, reference compound]","Score (body weight index according to the disease activity index, DAI)","0-4 points by weight decrease, ig 7 days, compound 20 mg/kg, sulfasalazine 500 mg/kg",1
same,Length of the colon,[1],5.814 ± 0.465 cm
same,Weight of the colon,[1],0.145 ± 0.018 g
same,diarrhea of the mice (general condition),"FIG. 2, TNBS-mediated UC model BALB/c mice, Compound 16 in three different dosage groups, sulfasalazine control group",mild
same,death of mice,"FIG. 2, on the 8th day of the experiment, model group mortality about 50%",only one mouse died
same,extent of ulcer lesions of colon and visceral adhesions,"FIG. 3, compound 312 at 5 mg/kg, 20 mg/kg, 50 mg/kg and positive drugs, vs model group",can improve the extent of ulcer lesions of colon and visceral adhesions
same,"histopathology of colon (HE staining, mucosal integrity / lesions)","FIG. 4, compared with the model group",largely reversed
same,Histopathology scores,"H&E colon sections, epithelial cells and inflammatory cell infiltration points, ig 7 days, compound 20 mg/kg, sulfasalazine 500 mg/kg",1.71 ± 0.69
same,Scores of gross morphological damages,"colon adhesion, ulceration, inflammation points, ig 7 days, compound 20 mg/kg, sulfasalazine 500 mg/kg",0.81 ± 0.69
same,weight/length ratio (average) of colon,"colon weight (g) / length (cm), ig 7 days, compound 20 mg/kg, sulfasalazine 500 mg/kg",0.025#
same,Ratio of weight loss,"ig daily for 7 days from day of modeling, compound 20 mg/kg, positive drug sulfasalazine 500 mg/kg, 10 mice per group",1.54 ± 3.72
